# According to ChEMBL document CHEMBL1933047, “Novel poly(ADP-ribose) polymerase-1 inhibitors” (Bioorg Med Chem Lett, 2012):
# pIC50: −log10 of the molar value.
# Key:
# [1] = biological target: Poly [ADP-ribose] polymerase 1 (Rattus norvegicus) (UniProt P27008); assay: Inhibition of PARP1 in rat PC12 cells assessed as NAD+ recovery at 30 uM pre-treated for 1 hr before hydrogen peroxide addition followed by washout and compound treated again for 1 hr relative to 5H-phenanthridin-6-one; format: cell-based; conditions: PC-12
# Sequence of Poly [ADP-ribose] polymerase 1 (Rattus norvegicus) (P27008 whole entry): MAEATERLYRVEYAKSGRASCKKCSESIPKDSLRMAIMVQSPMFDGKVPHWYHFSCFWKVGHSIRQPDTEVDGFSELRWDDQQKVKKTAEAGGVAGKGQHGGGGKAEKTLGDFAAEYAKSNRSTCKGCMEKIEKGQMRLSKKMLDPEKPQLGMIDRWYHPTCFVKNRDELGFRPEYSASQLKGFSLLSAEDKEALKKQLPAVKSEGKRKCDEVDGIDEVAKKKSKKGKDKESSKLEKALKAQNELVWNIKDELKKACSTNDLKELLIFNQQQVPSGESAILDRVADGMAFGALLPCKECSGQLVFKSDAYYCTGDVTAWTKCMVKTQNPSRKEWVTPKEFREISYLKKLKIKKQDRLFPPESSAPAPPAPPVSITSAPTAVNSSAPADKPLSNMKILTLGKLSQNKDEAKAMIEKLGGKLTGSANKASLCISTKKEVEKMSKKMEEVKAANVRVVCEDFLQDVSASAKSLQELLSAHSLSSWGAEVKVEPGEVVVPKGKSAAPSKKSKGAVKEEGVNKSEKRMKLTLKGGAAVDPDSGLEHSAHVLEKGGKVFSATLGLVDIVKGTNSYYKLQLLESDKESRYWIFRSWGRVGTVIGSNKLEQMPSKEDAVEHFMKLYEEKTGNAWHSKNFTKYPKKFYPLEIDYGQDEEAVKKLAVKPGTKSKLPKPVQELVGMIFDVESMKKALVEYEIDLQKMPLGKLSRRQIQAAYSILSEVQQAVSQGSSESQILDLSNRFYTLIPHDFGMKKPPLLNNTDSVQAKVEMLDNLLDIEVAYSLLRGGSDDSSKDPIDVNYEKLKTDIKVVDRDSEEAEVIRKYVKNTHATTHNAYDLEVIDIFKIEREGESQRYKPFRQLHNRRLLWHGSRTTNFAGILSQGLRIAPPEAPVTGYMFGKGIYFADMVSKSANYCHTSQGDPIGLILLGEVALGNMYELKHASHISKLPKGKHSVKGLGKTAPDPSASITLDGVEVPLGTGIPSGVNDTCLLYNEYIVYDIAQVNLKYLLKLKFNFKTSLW
# [2] = biological target: Poly [ADP-ribose] polymerase 1 (Rattus norvegicus) (UniProt P27008); assay: Inhibition of PARP1 in rat PC12 cells assessed as NAD+ recovery at 1 uM pre-treated for 1 hr before hydrogen peroxide addition followed by washout and compound treated again for 1 hr relative to control; format: cell-based; conditions: PC-12
# [3] = biological target: Poly [ADP-ribose] polymerase 1 (Homo sapiens, UniProt P09874); assay: Inhibition of recombinant human PARP1 by in vitro assay
# Sequence of Poly [ADP-ribose] polymerase 1 (P09874 whole entry): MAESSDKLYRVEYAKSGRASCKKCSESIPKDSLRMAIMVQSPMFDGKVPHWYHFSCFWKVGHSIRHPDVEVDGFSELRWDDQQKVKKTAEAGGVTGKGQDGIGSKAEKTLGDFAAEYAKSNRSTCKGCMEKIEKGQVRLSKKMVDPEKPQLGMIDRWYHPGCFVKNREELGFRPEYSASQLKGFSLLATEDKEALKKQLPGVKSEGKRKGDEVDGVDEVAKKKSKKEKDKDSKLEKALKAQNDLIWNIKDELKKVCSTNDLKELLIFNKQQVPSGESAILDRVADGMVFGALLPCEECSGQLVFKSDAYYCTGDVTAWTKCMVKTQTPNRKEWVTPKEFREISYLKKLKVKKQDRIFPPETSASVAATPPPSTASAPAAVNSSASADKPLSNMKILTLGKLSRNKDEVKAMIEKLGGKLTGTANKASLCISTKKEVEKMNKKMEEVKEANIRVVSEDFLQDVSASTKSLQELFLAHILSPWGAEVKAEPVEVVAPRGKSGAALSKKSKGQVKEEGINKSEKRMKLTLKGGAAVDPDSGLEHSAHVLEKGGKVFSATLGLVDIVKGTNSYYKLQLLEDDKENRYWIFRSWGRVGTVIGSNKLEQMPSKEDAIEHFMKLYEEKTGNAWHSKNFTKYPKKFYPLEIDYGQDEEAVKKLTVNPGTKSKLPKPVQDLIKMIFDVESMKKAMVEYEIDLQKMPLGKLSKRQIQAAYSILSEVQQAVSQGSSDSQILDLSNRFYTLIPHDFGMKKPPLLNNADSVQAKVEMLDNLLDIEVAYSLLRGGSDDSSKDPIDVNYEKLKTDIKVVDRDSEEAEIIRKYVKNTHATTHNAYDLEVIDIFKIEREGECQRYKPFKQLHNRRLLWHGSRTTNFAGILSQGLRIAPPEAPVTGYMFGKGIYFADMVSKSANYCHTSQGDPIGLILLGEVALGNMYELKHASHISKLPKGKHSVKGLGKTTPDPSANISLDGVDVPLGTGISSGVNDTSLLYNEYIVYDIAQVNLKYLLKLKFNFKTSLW
# [4] = biological target: Poly [ADP-ribose] polymerase 1 (Rattus norvegicus) (UniProt P27008); assay: Inhibition of PARP1 in rat PC12 cells assessed as NAD+ recovery at 10 uM pre-treated for 1 hr before hydrogen peroxide addition followed by washout and compound treated again for 1 hr relative to 5H-phenanthridin-6-one; format: cell-based; conditions: PC-12
# [5] = biological target: Poly [ADP-ribose] polymerase 1 (Rattus norvegicus) (UniProt P27008); assay: Inhibition of PARP1 in rat PC12 cells assessed as NAD+ recovery at 3 uM pre-treated for 1 hr before hydrogen peroxide addition followed by washout and compound treated again for 1 hr relative to 5H-phenanthridin-6-one; format: cell-based; conditions: PC-12
Compound,inhibition [1],inhibition [2],pIC50 [3],inhibition [4],inhibition [5]
O=C(CCC(=O)N1CCCCC1)c1ccc2[nH]c3c4c(c5c(c3c2c1)C(=O)NC5=O)CCC4,59%,55%,–,–,–
O=C(Cn1cncn1)c1ccc2[nH]c3c4c(c5c(c3c2c1)C(=O)NC5=O)CCC4,55%,25%,–,–,–
CC(C)(C)OC(=O)N1CCN(C(=O)CCC(=O)c2ccc3[nH]c4c5c(c6c(c4c3c2)C(=O)NC6=O)CCC5)CC1,29%,19%,–,–,–
COC(=O)[C@@H]1CCCN1CC(=O)c1ccc2[nH]c3c4c(c5c(c3c2c1)C(=O)NC5=O)CCC4,100%,27%,7.92,–,–
CN1CCN(CC(=O)c2ccc3[nH]c4c5c(c6c(c4c3c2)C(=O)NC6=O)CCC5)CC1,–,7%,–,43%,–
O=C(CN1CCOCC1)c1ccc2[nH]c3c4c(c5c(c3c2c1)C(=O)NC5=O)CCC4,–,38%,7.89,63%,–
CCN(CC)C(=O)CCC(=O)c1ccc2[nH]c3c4c(c5c(c3c2c1)C(=O)NC5=O)CCC4,78%,41%,–,–,–
O=C(CCC(=O)N1CCNCC1)c1ccc2[nH]c3c4c(c5c(c3c2c1)C(=O)NC5=O)CCC4,–,10%,–,–,–
O=C(CCC(=O)N1CCCC1)c1ccc2[nH]c3c4c(c5c(c3c2c1)C(=O)NC5=O)CCC4,92%,32%,–,–,–
CCN(CC)CC(=O)c1ccc2[nH]c3c4c(c5c(c3c2c1)C(=O)NC5=O)CCC4,70%,10%,–,–,–
NC(=O)[C@@H]1CCCN1C(=O)CCC(=O)c1ccc2[nH]c3c4c(c5c(c3c2c1)C(=O)NC5=O)CCC4,–,11%,–,–,–
O=C(O)CCC(=O)c1ccc2[nH]c3c4c(c5c(c3c2c1)C(=O)NC5=O)CCC4,42%,8%,–,–,–
CN1N=C(c2ccc3[nH]c4c5c(c6c(c4c3c2)C(=O)NC6=O)CCC5)CCC1=O,–,29%,–,–,–
O=C1NC(=O)c2c1c1c(c3[nH]c4ccccc4c23)CCC1,42%,30%,–,–,–
O=C(CN1CCC[C@H]1C(=O)O)c1ccc2[nH]c3c4c(c5c(c3c2c1)C(=O)NC5=O)CCC4,43%,14%,8.15,–,–
O=C(CCC(=O)N1CCC[C@H]1C(=O)O)c1ccc2[nH]c3c4c(c5c(c3c2c1)C(=O)NC5=O)CCC4,–,4%,8.70,–,14%
O=C(CCC(=O)c1ccc2[nH]c3c4c(c5c(c3c2c1)C(=O)NC5=O)CCC4)NCCO,–,24%,–,26%,–
O=C(CN1CCCCC1)c1ccc2[nH]c3c4c(c5c(c3c2c1)C(=O)NC5=O)CCC4,50%,14%,–,–,–
O=C1CCC(c2ccc3[nH]c4c5c(c6c(c4c3c2)C(=O)NC6=O)CCC5)=NN1,–,29%,–,49%,–
CN(CC(=O)OC(C)(C)C)CC(=O)c1ccc2[nH]c3c4c(c5c(c3c2c1)C(=O)NC5=O)CCC4,73%,14%,7.72,–,–
O=C(CCC(=O)N1CCOCC1)c1ccc2[nH]c3c4c(c5c(c3c2c1)C(=O)NC5=O)CCC4,65%,38%,–,–,–
CC(C)(C)OC(=O)NCCNC(=O)CCC(=O)c1ccc2[nH]c3c4c(c5c(c3c2c1)C(=O)NC5=O)CCC4,48%,26%,–,–,–
CC(C)(C)OC(=O)[C@@H]1CCCN1CC(=O)c1ccc2[nH]c3c4c(c5c(c3c2c1)C(=O)NC5=O)CCC4,88%,24%,–,–,–
NCCNC(=O)CCC(=O)c1ccc2[nH]c3c4c(c5c(c3c2c1)C(=O)NC5=O)CCC4,–,14%,–,32%,–
CC(C)(C)OC(=O)[C@@H]1CCCN1C(=O)CCC(=O)c1ccc2[nH]c3c4c(c5c(c3c2c1)C(=O)NC5=O)CCC4,98%,39%,–,–,–
CN(CC(=O)O)CC(=O)c1ccc2[nH]c3c4c(c5c(c3c2c1)C(=O)NC5=O)CCC4,45%,14%,–,–,–
